From ChEMBL document CHEMBL3885881, “DrugMatrix”

Species on record: Rattus norvegicus
Assay: DrugMatrix - Regimen: Daily Repeat
Assay type: toxicity, organism-based, Sprague-Dawley
Design: regimen Daily Repeat, gender Male, age 6-8 weeks
Conditions: in vivo, po, route oral GAVAGE, […]; for ABSOLUTE BASOPHIL / ABSOLUTE EOSINOPHIL / ABSOLUTE LYMPHOCYTE / ABSOLUTE MONOCYTE / ABSOLUTE SEGMENTED NEUTROPHIL / BASOPHIL / EOSINOPHIL / ERYTHROCYTE COUNT / HEMATOCRIT / HEMOGLOBIN / LEUKOCYTE COUNT / LYMPHOCYTE / MEAN CORPUSCULAR HEMOGLOBIN / MEAN CORPUSCULAR HEMOGLOBIN CONCENTRATION / MEAN CORPUSCULAR VOLUME / MONOCYTE / NEUTROPHIL / NUCLEATED RED BLOOD CELLS / PLATELET COUNT: tissue Blood; for ALANINE AMINOTRANSFERASE / ALBUMIN / ALKALINE PHOSPHATASE / ASPARTATE AMINOTRANSFERASE / BLOOD UREA NITROGEN / CARBON DIOXIDE / CHLORIDE / CHOLESTEROL / CREATINE PHOSPHOKINASE / CREATININE / GLUCOSE / LACTATE DEHYDROGENASE / LIPASE / PHOSPHORUS / POTASSIUM / SODIUM / TOTAL BILIRUBIN / TOTAL PROTEIN / URIC ACID: tissue Plasma
[1] = 0 mg/kg, 72 h, dose level Control, time 3 day
[2] = 0 mg/kg, 120 h, dose level Control, time 5 day
[3] = 30 mg/kg, 72 h, dose level Low, time 3 day

SMILES: CCC(C)n1ncn(-c2ccc(N3CCN(c4ccc(OCC5COC(Cn6cncn6)(c6ccc(Cl)cc6Cl)O5)cc4)CC3)cc2)c1=O (centres undefined) [ITRACONAZOLE]
- ABSOLUTE BASOPHIL [1]: 0 CELLS/uL
- ABSOLUTE EOSINOPHIL [1]: 104.17 CELLS/uL
- ABSOLUTE LYMPHOCYTE [1]: 14547 CELLS/uL
- ABSOLUTE MONOCYTE [1]: 292 CELLS/uL
- ABSOLUTE SEGMENTED NEUTROPHIL [1]: 1640.17 CELLS/uL
- BASOPHIL [1]: 0%
- EOSINOPHIL [1]: 0.67%
- ERYTHROCYTE COUNT [1]: 5.35 x10E6/uL
- HEMATOCRIT [1]: 33.67%
- HEMOGLOBIN [1]: 13.38 G/DL
- LEUKOCYTE COUNT [1]: 16.58 x10E3/uL
- LYMPHOCYTE [1]: 87.5%
- MEAN CORPUSCULAR HEMOGLOBIN [1]: 25.05 pg
- MEAN CORPUSCULAR HEMOGLOBIN CONCENTRATION [1]: 39.78 G/DL
- MEAN CORPUSCULAR VOLUME [1]: 62.97 fL
- MONOCYTE [1]: 1.83%
- NEUTROPHIL [1]: 10%
- NUCLEATED RED BLOOD CELLS [1]: 0 /100WBC
- PLATELET COUNT [1]: 1274.5 x10E3/uL
- ALANINE AMINOTRANSFERASE [1]: 76.83 u/L
- ALBUMIN [1]: 3.97 G/DL
- ALKALINE PHOSPHATASE [1]: 347 u/L
- ASPARTATE AMINOTRANSFERASE [1]: 97.17 u/L
- BLOOD UREA NITROGEN [1]: 14.33 mg/dL
- CARBON DIOXIDE [1]: 25.5 mmol/L
- CHLORIDE [1]: 100.33 MEQ/L
- CHOLESTEROL [1]: 68.67 mg/dL
- CREATINE PHOSPHOKINASE [1]: 659.17 u/L
- CREATININE [1]: 0.32 mg/dL
- GLUCOSE [1]: 160.67 mg/dL
- LACTATE DEHYDROGENASE [1]: 271.5 u/L
- LIPASE [1]: 11.67 u/L
- PHOSPHORUS [1]: 10.65 mg/dL
- POTASSIUM [1]: 5.95 MEQ/L
- SODIUM [1]: 139.65 MEQ/L
- TOTAL BILIRUBIN [1]: 0.2 mg/dL
- TOTAL PROTEIN [1]: 5.72 G/DL
- URIC ACID [1]: 1.37 mg/dL
- ABSOLUTE BASOPHIL [2]: 0 CELLS/uL
- ABSOLUTE EOSINOPHIL [2]: 331.5 CELLS/uL
- ABSOLUTE LYMPHOCYTE [2]: 15021.67 CELLS/uL
- ABSOLUTE MONOCYTE [2]: 376.5 CELLS/uL
- ABSOLUTE SEGMENTED NEUTROPHIL [2]: 3070.33 CELLS/uL
- BASOPHIL [2]: 0%
- EOSINOPHIL [2]: 1.83%
- ERYTHROCYTE COUNT [2]: 5.24 x10E6/uL
- HEMATOCRIT [2]: 33.22%
- HEMOGLOBIN [2]: 13.2 G/DL
- LEUKOCYTE COUNT [2]: 18.8 x10E3/uL
- LYMPHOCYTE [2]: 79.67%
- MEAN CORPUSCULAR HEMOGLOBIN [2]: 25.17 pg
- MEAN CORPUSCULAR HEMOGLOBIN CONCENTRATION [2]: 39.73 G/DL
- MEAN CORPUSCULAR VOLUME [2]: 63.38 fL
- MONOCYTE [2]: 2%
- NEUTROPHIL [2]: 16.5%
- NUCLEATED RED BLOOD CELLS [2]: 0 /100WBC
- PLATELET COUNT [2]: 1142.67 x10E3/uL
- ALANINE AMINOTRANSFERASE [2]: 52.5 u/L
- ALBUMIN [2]: 3.9 G/DL
- ALKALINE PHOSPHATASE [2]: 284.5 u/L
- ASPARTATE AMINOTRANSFERASE [2]: 81.33 u/L
- BLOOD UREA NITROGEN [2]: 16 mg/dL
- CARBON DIOXIDE [2]: 25.33 mmol/L
- CHLORIDE [2]: 99.5 MEQ/L
- CHOLESTEROL [2]: 74.83 mg/dL
- CREATINE PHOSPHOKINASE [2]: 448.33 u/L
- CREATININE [2]: 0.37 mg/dL
- GLUCOSE [2]: 164.17 mg/dL
- LACTATE DEHYDROGENASE [2]: 290.67 u/L
- LIPASE [2]: 6.83 u/L
- PHOSPHORUS [2]: 11.5 mg/dL
- POTASSIUM [2]: 6.28 MEQ/L
- SODIUM [2]: 139.5 MEQ/L
- TOTAL BILIRUBIN [2]: 0.13 mg/dL
- TOTAL PROTEIN [2]: 5.55 G/DL
- URIC ACID [2]: 1.12 mg/dL
- ABSOLUTE BASOPHIL [3]: 0 CELLS/uL
- ABSOLUTE EOSINOPHIL [3]: 60 CELLS/uL
- ABSOLUTE LYMPHOCYTE [3]: 9936.67 CELLS/uL
- ABSOLUTE MONOCYTE [3]: 160.67 CELLS/uL
- ABSOLUTE SEGMENTED NEUTROPHIL [3]: 876 CELLS/uL
- BASOPHIL [3]: 0%
- EOSINOPHIL [3]: 0.67%
- ERYTHROCYTE COUNT [3]: 6.06 x10E6/uL
- HEMATOCRIT [3]: 37.97%
- HEMOGLOBIN [3]: 14.57 G/DL
- LEUKOCYTE COUNT [3]: 11.03 x10E3/uL
- LYMPHOCYTE [3]: 89.67%
- MEAN CORPUSCULAR HEMOGLOBIN [3]: 24 pg
- MEAN CORPUSCULAR HEMOGLOBIN CONCENTRATION [3]: 38.4 G/DL
- MEAN CORPUSCULAR VOLUME [3]: 62.6 fL
- MONOCYTE [3]: 1.33%
- NEUTROPHIL [3]: 8.33%
- NUCLEATED RED BLOOD CELLS [3]: 0 /100WBC
- PLATELET COUNT [3]: 1209.33 x10E3/uL
- ALANINE AMINOTRANSFERASE [3]: 56 u/L
- ALBUMIN [3]: 4.23 G/DL
- ALKALINE PHOSPHATASE [3]: 522.33 u/L
- ASPARTATE AMINOTRANSFERASE [3]: 74.33 u/L
- BLOOD UREA NITROGEN [3]: 11 mg/dL
- CARBON DIOXIDE [3]: 22.67 mmol/L
- CHLORIDE [3]: 100.33 MEQ/L
- CHOLESTEROL [3]: 56 mg/dL
- CREATINE PHOSPHOKINASE [3]: 240 u/L
- CREATININE [3]: 0.11 mg/dL
- GLUCOSE [3]: 184.33 mg/dL
- LACTATE DEHYDROGENASE [3]: 106 u/L
- LIPASE [3]: 10 u/L
- PHOSPHORUS [3]: 12.87 mg/dL
- POTASSIUM [3]: 6.49 MEQ/L
- SODIUM [3]: 141.73 MEQ/L
- TOTAL BILIRUBIN [3]: 0.17 mg/dL
- TOTAL PROTEIN [3]: 6.4 G/DL
- URIC ACID [3]: 1.97 mg/dL
